# Measurements taken from patent US10005768B2, “Carboxamide derivatives and use thereof” (Purdue Pharma L.P., priority 2013, dated 2018).
# Target: human Nav1.7 (Homo sapiens (Human), UniProt Q15858)
# Assay: FLIPR sodium dye assay (CoroNa Green AM Na+ dye, primary fluorescence assay)
# Format: cell-based
# Details: recombinant Nav1.7/HEK293 cells
# Outline: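 HEK293 cells stably expressing human Nav1.7 α subunit (no β/γ subunits), loaded with 5 μM CoroNa Green Na+ dye in HEPES-buffered Hanks-type saline, pH 7.3. Na+ influx stimulated by 100 μM veratridine plus 10 μg/mL Leiurus scorpion venom; compounds tested at 20 μM down to 0.001 μM (10 points, 0.2% DMSO).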
# Sequence of human Nav1.7 (Q15858 other isoform, or with tags, fused parts or gaps): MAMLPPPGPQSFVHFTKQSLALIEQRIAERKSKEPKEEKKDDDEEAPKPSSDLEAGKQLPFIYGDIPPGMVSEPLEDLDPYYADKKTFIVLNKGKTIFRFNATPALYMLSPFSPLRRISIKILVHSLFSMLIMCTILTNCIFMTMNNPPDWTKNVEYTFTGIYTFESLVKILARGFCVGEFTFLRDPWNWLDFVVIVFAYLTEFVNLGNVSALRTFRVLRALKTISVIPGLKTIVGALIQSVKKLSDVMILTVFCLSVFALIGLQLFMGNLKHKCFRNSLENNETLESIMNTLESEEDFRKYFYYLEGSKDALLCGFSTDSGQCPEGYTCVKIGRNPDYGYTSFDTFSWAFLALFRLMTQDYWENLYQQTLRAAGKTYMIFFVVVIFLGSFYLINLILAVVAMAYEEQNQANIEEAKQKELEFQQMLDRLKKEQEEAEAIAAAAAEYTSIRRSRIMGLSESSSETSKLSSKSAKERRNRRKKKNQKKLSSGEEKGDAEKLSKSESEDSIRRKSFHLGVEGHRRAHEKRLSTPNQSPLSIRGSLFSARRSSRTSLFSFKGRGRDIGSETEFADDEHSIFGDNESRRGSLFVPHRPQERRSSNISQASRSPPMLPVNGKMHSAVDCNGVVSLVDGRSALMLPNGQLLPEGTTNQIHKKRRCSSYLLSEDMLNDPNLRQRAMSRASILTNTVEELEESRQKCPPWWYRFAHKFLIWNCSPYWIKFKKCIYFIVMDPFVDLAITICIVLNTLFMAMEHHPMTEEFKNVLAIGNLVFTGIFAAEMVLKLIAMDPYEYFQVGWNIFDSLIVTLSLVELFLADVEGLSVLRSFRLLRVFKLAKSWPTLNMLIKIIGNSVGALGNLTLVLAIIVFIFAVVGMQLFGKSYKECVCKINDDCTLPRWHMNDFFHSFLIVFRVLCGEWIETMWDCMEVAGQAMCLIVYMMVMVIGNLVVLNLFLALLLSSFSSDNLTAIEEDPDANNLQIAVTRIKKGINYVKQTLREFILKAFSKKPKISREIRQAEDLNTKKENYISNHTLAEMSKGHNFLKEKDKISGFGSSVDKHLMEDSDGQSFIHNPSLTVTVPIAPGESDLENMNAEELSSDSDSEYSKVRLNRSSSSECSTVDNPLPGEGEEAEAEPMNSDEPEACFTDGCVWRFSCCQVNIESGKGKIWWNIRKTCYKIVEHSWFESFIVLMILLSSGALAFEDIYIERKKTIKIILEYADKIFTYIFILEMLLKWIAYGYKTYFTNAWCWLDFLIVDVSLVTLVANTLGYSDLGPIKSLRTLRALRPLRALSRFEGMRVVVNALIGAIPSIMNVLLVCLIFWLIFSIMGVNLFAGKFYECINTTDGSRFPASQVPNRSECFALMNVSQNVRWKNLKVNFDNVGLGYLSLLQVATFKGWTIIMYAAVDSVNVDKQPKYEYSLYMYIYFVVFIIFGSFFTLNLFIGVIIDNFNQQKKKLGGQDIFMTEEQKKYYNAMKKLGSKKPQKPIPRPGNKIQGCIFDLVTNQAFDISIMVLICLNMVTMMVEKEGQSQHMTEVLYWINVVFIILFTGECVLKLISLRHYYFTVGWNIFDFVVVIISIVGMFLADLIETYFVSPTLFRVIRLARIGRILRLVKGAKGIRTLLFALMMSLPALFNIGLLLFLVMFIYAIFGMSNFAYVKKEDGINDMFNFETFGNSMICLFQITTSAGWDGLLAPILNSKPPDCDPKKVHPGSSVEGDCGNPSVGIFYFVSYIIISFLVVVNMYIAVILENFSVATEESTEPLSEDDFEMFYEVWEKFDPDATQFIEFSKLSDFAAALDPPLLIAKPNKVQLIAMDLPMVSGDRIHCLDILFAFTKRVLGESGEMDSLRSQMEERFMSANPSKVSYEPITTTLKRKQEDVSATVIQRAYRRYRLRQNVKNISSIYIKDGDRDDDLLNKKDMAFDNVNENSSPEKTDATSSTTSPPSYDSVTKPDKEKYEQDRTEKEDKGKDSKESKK
row,Compound,IC50 [µM]
1,"NC(=O)c1cccc(-c2ccc(Oc3ccc(C(F)(F)F)cc3C(O)C(=O)N3CCCC3)cc2)n1 (stereo not drawn) [compound 158, 6-(4-(2-(1-hydroxy-2-oxo-2-(pyrrolidin-1-yl)ethyl)-4-(trifluoromethyl)phenoxy)phenyl) picolinamide]",0.214 ± 0.029
2,"NC(=O)c1cccc(-c2ccc(Oc3ccc(C(F)(F)F)c(CN4CC[C@H](O)C4)c3)cc2)n1 [compound 54, (S)-6-(4-(3-((3-hydroxy-pyrrolidin-1-yl)methyl)-4-(trifluoromethyl)phenoxy)-phenyl)picolinamide]",0.366 ± 0.085
3,"CN(c1ccccc1)c1cc(-c2cccc(C(N)=O)n2)ccc1Oc1ccc(F)cc1 [compound 92, 6-(4-(4-fluorophenoxy)-3-(methyl(phenyl)amino)phenyl) picolinamide]",> 20
4,"NC(=O)c1cccc(-c2ccc(Oc3ccc(C(F)(F)F)cc3CNc3nccs3)cc2)n1 [compound 114, 6-(4-(2-((thiazol-2-ylamino)methyl)-4-(trifluoromethyl)phenoxy)phenyl) picolinamide]",2.01 ± 0.456
5,"CCOCc1cc(-c2cccc(C(N)=O)n2)ccc1Oc1ccc(F)cc1 [compound 96, 6-(3-(ethoxymethyl)-4-(4-fluorophenoxy)phenyl) picolinamide]",1.13 ± 0.11
6,"NC(=O)c1cccc(-c2ccc(Oc3ccc(C(F)(F)F)cc3CN3CCC3)cc2)n1 [compound 50, 6-(4-(2-(azetidin-1-ylmethyl)-4-(trifluoromethyl)phenoxy)phenyl) picolinamide]",0.768 ± 0.051
7,"NC(=O)c1cccc(-c2ccc(Oc3ccc(C(F)(F)F)cc3C(=O)N3CCNC(=O)C3)cc2)n1 [compound 165, 6-(4-(2-(3-oxopiperazine-1-carbonyl)-4-(trifluoromethyl)-phenoxy)phenyl)picolinamide]",> 20
8,"CN(Cc1cc(-c2cccc(C(N)=O)n2)ccc1Oc1ccc(F)cc1)c1ccccc1 [compound 102, 6-(4-(4-fluorophenoxy)-3-((methyl(phenyl)amino)methyl)phenyl)picolinamide]",1.3 ± 0.126
9,"CN(CCO)Cc1cc(C(F)(F)F)ccc1Oc1ccc(-c2cccc(C(N)=O)n2)cc1 [compound 52, 6-(4-(2-(((2-hydroxyethyl)-(methyl)amino)methyl)-4-(trifluoromethyl)phenoxy)phenyl) picolinamide]",1.1 ± 0.107
10,"NC(=O)c1cccc(-c2ccc(Oc3ccc(C(F)(F)F)cc3CN3CCC[C@H]3CO)cc2)n1 [compound 41, (S)-6-(4-(2-((2-(hydroxyl-methyl)pyrrolidin-1-yl)methyl)-4-(trifluoromethyl)phenoxy)phenyl) picolinamide]",1.13 ± 0.1
11,"NC(=O)c1cccc(-c2ccc(Oc3ccc(C(F)(F)F)cc3C(C(=O)N3CCCC3)N3CCNC(=O)C3)cc2)n1 (stereo not drawn) [compound 112, 6-(4-(2-(2-oxo-1-(3-oxopiperazin-1-yl)-2-(pyrrolidin-1-yl)ethyl)-4-(trifluoromethyl)phenoxy)phenyl) picolinamide]",> 20
12,"O=C1CN(Cc2cc(C(F)(F)F)ccc2Oc2ccc(-c3cccc([C@H](O)CO)n3)cc2)CCN1 [compound 74, (S)-4-(2-(4-(6-(1,2-dihydroxyethyl)pyridin-2-yl)phenoxy)-5-(trifluoro-methyl)benzyl)piperazin-2-one]",0.672 ± 0.059
13,"CCN(CC)Cc1cc(C(F)(F)F)ccc1Oc1ccc(-c2cccc(C(N)=O)n2)cc1 [compound 118, 6-(4-(2-((diethylamino)methyl)-4-(trifluoromethyl)phenoxy)phenyl) picolinamide]",0.118 ± 0.012
14,"CN(C)CCCNCc1cc(C(F)(F)F)ccc1Oc1ccc(-c2cccc(C(N)=O)n2)cc1 [compound 38, 6-(4-(2-(((3-(dimethylamino)-propyl)amino)methyl)-4-(trifluoromethyl)phenoxy)phenyl) picolinamide]",1.69 ± 0.157
15,"Cn1nccc1-c1cc(C#N)ccc1Oc1ccc(-c2cccc(C(N)=O)n2)cc1 [compound 22, 6-(4-(4-cyano-2-(1-methyl-1H-pyrazol-5-yl)phenoxy)phenyl) picolinamide]",0.285 ± 0.009
